Article PMC9322406, “Broad‐range metalloprotease profiling in plants uncovers immunity provided by defence‐related metalloenzyme” (The New Phytologist, 2022)

Tests used:
Assay in all cases: competition with DK-01 photoaffinity labelling, in-gel fluorescence
Format in all cases: biochemical
Settings in all cases: 200 uM inhibitor preincubated, 10 uM DK-01; leaf extract; band assigned by knockout
APM1 = target: T1, APM1 (Arabidopsis thaliana, UniProt Q8VZH2)
T1 construct: assigned by mutant lines
T1 sequence (Q8VZH2 1-879): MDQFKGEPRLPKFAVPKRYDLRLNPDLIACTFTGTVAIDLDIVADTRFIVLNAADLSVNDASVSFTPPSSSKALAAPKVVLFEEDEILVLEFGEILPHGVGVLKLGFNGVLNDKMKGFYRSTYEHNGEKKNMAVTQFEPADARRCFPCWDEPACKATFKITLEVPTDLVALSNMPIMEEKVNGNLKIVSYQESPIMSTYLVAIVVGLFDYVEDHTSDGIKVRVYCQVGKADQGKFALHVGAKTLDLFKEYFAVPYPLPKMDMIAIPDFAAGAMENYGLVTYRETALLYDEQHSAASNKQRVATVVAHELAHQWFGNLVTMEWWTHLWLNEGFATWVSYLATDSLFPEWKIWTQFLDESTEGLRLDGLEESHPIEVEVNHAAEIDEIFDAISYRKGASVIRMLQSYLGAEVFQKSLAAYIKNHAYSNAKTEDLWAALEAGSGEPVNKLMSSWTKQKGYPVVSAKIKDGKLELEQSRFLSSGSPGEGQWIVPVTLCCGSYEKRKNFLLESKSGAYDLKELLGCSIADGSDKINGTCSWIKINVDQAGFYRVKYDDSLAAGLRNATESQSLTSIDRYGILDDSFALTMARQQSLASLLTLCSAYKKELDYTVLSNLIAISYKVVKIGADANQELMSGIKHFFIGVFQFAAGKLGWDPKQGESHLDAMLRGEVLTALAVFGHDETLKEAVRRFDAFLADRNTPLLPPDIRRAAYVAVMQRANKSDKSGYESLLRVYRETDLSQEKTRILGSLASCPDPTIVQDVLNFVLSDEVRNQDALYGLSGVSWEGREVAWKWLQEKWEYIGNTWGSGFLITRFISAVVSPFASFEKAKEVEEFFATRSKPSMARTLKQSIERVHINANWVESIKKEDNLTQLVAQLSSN

PREP1 = target: T2, PREP1 (Arabidopsis thaliana, UniProt Q9LJL3)
T2 construct: assigned by knockout lines; locus printed At3g18170, probably a misprint for At3g19170
T2 sequence (Q9LJL3 86-1080): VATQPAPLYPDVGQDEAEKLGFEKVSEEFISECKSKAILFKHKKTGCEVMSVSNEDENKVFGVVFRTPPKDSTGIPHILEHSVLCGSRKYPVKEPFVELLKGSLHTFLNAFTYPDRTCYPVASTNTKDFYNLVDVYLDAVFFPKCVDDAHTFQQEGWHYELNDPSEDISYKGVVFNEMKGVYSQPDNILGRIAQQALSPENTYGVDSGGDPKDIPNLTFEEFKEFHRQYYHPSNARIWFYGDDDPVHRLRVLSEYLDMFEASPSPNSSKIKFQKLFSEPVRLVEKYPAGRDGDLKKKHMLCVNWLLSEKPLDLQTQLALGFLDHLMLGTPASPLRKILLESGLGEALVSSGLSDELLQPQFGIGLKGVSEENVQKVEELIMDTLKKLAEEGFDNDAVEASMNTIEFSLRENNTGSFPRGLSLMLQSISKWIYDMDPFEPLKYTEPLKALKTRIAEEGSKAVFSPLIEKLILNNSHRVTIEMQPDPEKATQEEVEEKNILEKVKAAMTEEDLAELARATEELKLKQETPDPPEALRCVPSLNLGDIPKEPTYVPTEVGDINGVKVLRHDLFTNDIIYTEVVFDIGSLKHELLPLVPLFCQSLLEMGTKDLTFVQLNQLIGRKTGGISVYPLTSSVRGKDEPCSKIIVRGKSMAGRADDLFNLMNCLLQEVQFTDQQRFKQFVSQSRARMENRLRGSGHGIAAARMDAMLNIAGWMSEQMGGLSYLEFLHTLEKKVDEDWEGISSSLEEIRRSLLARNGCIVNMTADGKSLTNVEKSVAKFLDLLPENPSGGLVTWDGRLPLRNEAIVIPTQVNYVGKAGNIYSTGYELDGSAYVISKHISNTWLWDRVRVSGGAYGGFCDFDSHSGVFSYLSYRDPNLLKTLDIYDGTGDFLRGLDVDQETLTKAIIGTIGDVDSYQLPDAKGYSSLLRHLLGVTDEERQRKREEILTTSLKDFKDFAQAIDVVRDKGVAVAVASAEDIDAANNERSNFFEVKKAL

TOP1 = target: T3, TOP1 (Arabidopsis thaliana, UniProt Q94AM1)
T3 construct: gene OOP; assigned by knockout lines
T3 sequence (Q94AM1 83-791): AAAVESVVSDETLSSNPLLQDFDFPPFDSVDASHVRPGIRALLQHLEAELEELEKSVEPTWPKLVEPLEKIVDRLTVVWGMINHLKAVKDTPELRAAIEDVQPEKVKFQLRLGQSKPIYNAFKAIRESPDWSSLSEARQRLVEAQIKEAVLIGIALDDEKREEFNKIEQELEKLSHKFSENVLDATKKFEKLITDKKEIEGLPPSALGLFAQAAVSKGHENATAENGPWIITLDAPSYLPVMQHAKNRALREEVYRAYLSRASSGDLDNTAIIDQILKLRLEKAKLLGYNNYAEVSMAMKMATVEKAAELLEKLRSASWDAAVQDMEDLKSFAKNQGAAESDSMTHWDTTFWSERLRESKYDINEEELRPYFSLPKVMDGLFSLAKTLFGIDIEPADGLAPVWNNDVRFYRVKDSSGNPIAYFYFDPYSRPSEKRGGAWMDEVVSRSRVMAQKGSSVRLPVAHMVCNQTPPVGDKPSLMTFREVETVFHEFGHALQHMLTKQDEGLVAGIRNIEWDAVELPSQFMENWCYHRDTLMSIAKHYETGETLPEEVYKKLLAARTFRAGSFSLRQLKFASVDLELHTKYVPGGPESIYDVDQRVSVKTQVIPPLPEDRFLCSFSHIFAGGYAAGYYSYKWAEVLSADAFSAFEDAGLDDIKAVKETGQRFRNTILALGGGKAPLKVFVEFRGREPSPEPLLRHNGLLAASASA

competition with DK-01 photoaffinity labelling, in-gel fluorescence (PREP1) | Compound | competition with DK-01 photoaffinity labelling, in-gel fluorescence (APM1) | competition with DK-01 photoaffinity labelling, in-gel fluorescence (TOP1)
PREP1 is actinonin/ilomastat‐sensitive | CCCCC[C@H](CC(=O)NO)C(=O)N[C@H](C(=O)N1CCC[C@H]1CO)C(C)C [actinonin] | APM1 is marimastat/actinonin‐sensitive and active at pH5 and above | TOP1 labelling is actinonin‐sensitive and requires a neutral pH
PREP1 is actinonin/ilomastat‐sensitive | CNC(=O)[C@H](Cc1c[nH]c2ccccc12)NC(=O)[C@@H](CC(=O)NO)CC(C)C [ilomastat] | – | –
– | CNC(=O)[C@@H](NC(=O)[C@H](CC(C)C)[C@H](O)C(=O)NO)C(C)(C)C [marimastat] | APM1 is marimastat/actinonin‐sensitive and active at pH5 and above | –
